The values that follow come from EP0038251A1, “Derivatives of osides, their preparation and their biological applications” (ANVAR Agence Nationale de Valorisation de la Recherche, priority 1980, dated 1981).

For the assay, the system named is hémolysines anti-B. Description: Neutralisation of anti-B haemolysins: inhibition of one agglutinating dose of an anti-B test serum (European Pharmacopoeia techniques). To be noted: dilution 1/5 of a 10 mg/ml solution. In kind it is biochemical. How it is done: On utilise une solution à 10 mg/ml du produit de formule XXVI.

Take `C[C@@H]1O[C@@H](O[C@H]2[C@H](OCCCOCCCN)O[C@H](CO)[C@H](O)[C@@H]2O[C@H]2O[C@H](CO)[C@H](O)[C@H](O)[C@H]2O)[C@@H](O)[C@H](O)[C@@H]1O` [trisaccharide XXVI]: the “inhibition d'une dose agglutinante d'un sérum-test anti-B” value is “inhibition totale”.
